{
  "source": "patent US20050181952A1",
  "about": "“Slow-release agrochemicals dispenser and method of use” (priority 2002, published 2005)",
  "key": {"Striga [1]": {"system": "Striga", "assay": "Pot experiments, Kenya: watering regimes and efficacy of slow release formulations on Striga", "type": "in vivo", "conditions": "pots", "description": "Formulations were prepared as outlined in Example 3 and applied to the seeds, without adding free imazapyr (as in Example 2) and planted in pots. 63 pots (10,380 cm^3) were set up, each with 8 kg soil (classified as a vetro-eutic planosol according to the FAO/UNESCO (1974) system) so that we had 21 pots per replication. Each pot was inoculated with 3,000 Striga and mixed thoroughly at a depth of 15 cm. The pots were watered and left for one week to allow Striga seeds to “pre-condition” for germination. Two IR-corn seeds were planted in each plot, each treated 0, 0.25, 0.5 acid equivalent mg imazapyr per pot, as the free acid of the herbicide, or in 0, 0.15, 0.3, acid equivalent mg imazapyr per pot DE-52 or Dowex 1 formulations. Each formulation treatment at each rate had three replicates at each simulated rainfall regime. Natural rain measurements were made. Rainfall was supplemented at 19, 28, and 56 mm of water applied twice weekly, less amount of natural rainfall, for three months to simulate seasonal rainfalls of 500, 750 and 1500 mm, respectively. Measurements of Striga emergence were made at biweekly intervals. Late season emergence of Striga was measured at 12 weeks after planting. […] At the medium and highest watering level, there was no control of Striga by the lowest free herbicide rates, whereas the slow release herbicide performed far better (Table 3)."}, "Striga [2]": {"system": "Striga", "assay": "Field experiment Short Rains 2002: slow release formulations without free herbicide, Striga control", "type": "in vivo", "description": "A solid coat of polylvinylpyrollidone (PVP) (avg. MW 90 Kd) was used to bind the various formulations to the maize seed. 90 mg of PVP mixed with 2.9 ml water was combined with various amounts of the slow release formulations described in Example 1 or with 36 mg dry imazapyr (acid form) or sodium pyrithiobac powder mixed thoroughly together and then with 144 maize seeds (to give a imazapyr coating of 0.25 mg a.e. imazapyr seed^−1). This is the equivalent of 13.25 g a.e. ha^−1, respectively, when planted in the field at 53,300 seeds ha^−1. The treated seeds were then planted in the field within 2 days of coating. All field experiments were conducted at the National Sugar Research Center (NRSC) of the Kenya Agricultural Research Institute (KARI) near Kibos (0°04′S, 34°48′, elevation 1214 m) in western Kenya. The soil is classified as a vetro-eutic planosol according to the FAO/UNESCO (1974) system. The fields used had previously been cropped to maize that was heavily infested with Striga, which matured and seeded the area. The experiments were carried out during October-January […]. Seasonal precipitation during that season was 550 mm. […] Maize stand counts were determined six weeks after planting. […] The number of flowering Striga plants and Striga seed capsules at twelve and fourteen weeks; adjusted grain yield to 15% moisture; and total maize shoot dry weight were all measured. […]"}},
  "data": [
    {"smiles": "CC(C)C1(C)N=C(c2ncccc2C(=O)O)NC1=O", "note": "(centres unmarked) [Imazapyr, imazapyr]", "values": [
      {"measurement": "Late season Striga emergence 12 weeks (plants/m^2)", "setting": "Striga [1]; High water (1500 mm total), imazapyr 0.25 mg/seed", "result": 57, "unit": "plants/m^2"},
      {"measurement": "Late season Striga emergence 12 weeks (plants/m^2)", "setting": "Striga [1]; High water (1500 mm total), imazapyr 0.5 mg/seed", "result": 11, "unit": "plants/m^2"},
      {"measurement": "Late season Striga emergence 12 weeks (plants/m^2)", "setting": "Striga [1]; Low water (500 mm total), imazapyr 0.25 mg/seed", "result": 16, "unit": "plants/m^2"},
      {"measurement": "Late season Striga emergence 12 weeks (plants/m^2)", "setting": "Striga [1]; Low water (500 mm total), imazapyr 0.5 mg/seed", "result": 3, "unit": "plants/m^2"},
      {"measurement": "Late season Striga emergence 12 weeks (plants/m^2)", "setting": "Striga [1]; Medium water (750 mm total), imazapyr 0.25 mg/seed", "result": 33, "unit": "plants/m^2"},
      {"measurement": "Late season Striga emergence 12 weeks (plants/m^2)", "setting": "Striga [1]; Medium water (750 mm total), imazapyr 0.5 mg/seed", "result": 7, "unit": "plants/m^2"},
      {"measurement": "Striga emergence (m^−2) at 12 weeks", "setting": "Striga [2]; imazapyr 0.25 mg/seed", "result": 2.1, "unit": "m^−2"},
      {"measurement": "Striga emergence (m^−2) at 12 weeks", "setting": "Striga [2]; imazapyr 0.5 mg/seed", "result": 0.7, "unit": "m^−2"}
    ]}
  ]
}
